Laboratory results taken from patent US20230183193A1, “4-DIFLUOROMETHYL BENZOYL AMIDES WITH HERBICIDAL ACTION” (BAYER CROPSCIENCE AKTIENGESELLSCHAFT, priority 2017, published 2023).

Assays:
Assay type in all cases: in vivo
[1] = test system: Alopecurus myosuroides; test: Pre-emergence herbicidal action, ALOMY
Method in brief: (§1)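 Weed seeds were laid out in sandy loam and covered with soil, then the soil surface was treated with an aqueous suspension or emulsion of the formulated compound containing 0.2% wetting agent. Pots stayed in the greenhouse for 3 weeks before damage was rated visually against untreated plants.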

[2] = test system: Amaranthus retroflexus; test: Post-emergence herbicidal action, AMARE; conditions: 80 g/ha
Method in brief: (§2)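 Visual percent activity relative to untreated controls, assessed about 3 weeks after foliar treatment, where 0% equals control growth and 100% equals death. Compounds, as wettable powders or emulsion concentrates, are sprayed onto one-leaf-stage plants in sandy loam.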

[3] = test system: Matricaria inodora; test: Post-emergence herbicidal action, MATIN
Protocol: (§3) Seeds of monocotyledonous and dicotyledonous weed and crop plants are laid out in sandy loam soil in wood-fiber pots, covered with soil and cultivated in a greenhouse under good growth conditions. 2 to 3 weeks after sowing, the test plants are treated at the one-leaf stage. The compounds of the invention, formulated in the form of wettable powders (WP) or as emulsion concentrates (EC), are then sprayed onto the green parts of the plants in the form of an aqueous suspension or emulsion at a water application rate equating to […], with addition of 0.2% wetting agent. After the test plants have been left to stand in the greenhouse under optimal growth conditions for about 3 weeks, the action of the preparations is assessed visually in comparison to untreated controls (herbicidal action in percent (%): 100% activity=the plants have died, 0% activity=like control plants). […] At the same time, inventive compounds leave Gramineae crops such as barley, wheat, rye, millet/sorghum, corn or rice virtually undamaged when applied post-emergence, even at high active compound dosages. In addition, some substances are also harmless to dicotyledonous crops such as soya, cotton, oilseed rape, sugar beet or potatoes. Some of the compounds according to the invention have high selectivity and are therefore suitable for controlling unwanted vegetation in agricultural crops by the post-emergence method. The data of Tables C and D below illustrate, in an exemplary manner, the […] herbicidal action of the compounds according to the invention, the herbicidal activity being stated in percent.
(§4) For comparison, the herbicidal activity of numerous compounds according to the invention was tested with the structurally closest compounds known from the documents WO 2011/035874, WO 2012/028579 and WO 2012/126932, by the pre- and post-emergence method.

[4] = test system: Setaria viridis; test: Pre-emergence herbicidal action, SETVI
Method in brief: as §1

[5] = test system: Veronica persica; test: Pre-emergence herbicidal action, VERPE; conditions: comparison with WO 2011035874, Table H
Source text: (§5) 1. Pre-Emergence Herbicidal Action Against Harmful Plants Seeds of monocotyledonous and dicotyledonous weed plants and crop plants are laid out in sandy loam soil in wood-fiber pots and covered with soil. The compounds of the invention, formulated in the form of wettable powders (WP) or as emulsion concentrates (EC), are then applied to the surface of the covering soil in the form of an aqueous suspension or emulsion at a water application rate equating to […], with addition of 0.2% wetting agent. After the treatment, the pots are placed in a greenhouse and kept under good growth conditions for the trial plants. The damage to the test plants is scored visually after a test period of 3 weeks by comparison with untreated controls (herbicidal activity in percent (%): 100% activity=the plants have died, 0% activity=like control plants).
as §4

[6] = test system: Polygonum convolvulus; test: Pre-emergence herbicidal action, POLCO
Source text: as §5, §4

[7] = test system: Amaranthus retroflexus; test: Pre-emergence herbicidal action, AMARE; conditions: for Herbicidal efficacy against AMARE: comparison with WO 2011035874, Table H
Method in brief: as §1

[8] = test system: Cyperus serotinus; test: Pre-emergence herbicidal action, CYPES
Method in brief: as §1

[9] = test system: Stellaria media; test: Post-emergence herbicidal action, STEME; conditions: 80 g/ha
Method in brief: as §2

[10] = test system: Abutilon theophrasti; test: Pre-emergence herbicidal action, ABUTH; conditions: comparison with WO 2011035874, Table G
Method in brief: as §1

[11] = test system: Avena fatua; test: Pre-emergence herbicidal action, AVEFA
Method in brief: as §1

[12] = test system: Abutilon theophrasti; test: Post-emergence herbicidal action, ABUTH; conditions: 80 g/ha
Method in brief: as §2

[13] = test system: Veronica persica; test: Post-emergence herbicidal action, VERPE
Protocol: as §3, §4

[14] = test system: Pharbitis purpureum; test: Post-emergence herbicidal action, PHBPU; conditions: 80 g/ha
Method in brief: as §2

[15] = test system: ECHCG; test: Pre-emergence herbicidal action, ECHCG; conditions: comparison with WO 2011035874, Table G
Source text: as §5

[16] = test system: Viola tricolor; test: Post-emergence herbicidal action, VIOTR
Method in brief: as §2

[17] = test system: Viola tricolor; test: Pre-emergence herbicidal action, VIOTR
Method in brief: as §1

[18] = test system: Stellaria media; test: Pre-emergence herbicidal action, STEME; conditions: for Herbicidal efficacy against STEME: comparison with WO 2011035874, Table H
Method in brief: as §1

[19] = test system: Matricaria inodora; test: Pre-emergence herbicidal action, MATIN; conditions: dosage 320 g/ha, scored visually after 3 weeks vs untreated controls
Method in brief: as §1

[20] = test system: Alopecurus myosuroides; test: Post-emergence herbicidal action, ALOMY
Method in brief: as §2

[21] = test system: Avena fatua; test: Post-emergence herbicidal action, AVEFA; conditions: dosage 20 g/ha, Table M
Method in brief: as §2

[22] = test system: ECHCG; test: Post-emergence herbicidal action, ECHCG; conditions: 80 g/ha, Table C
Method in brief: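 Weed and crop plants grown in sandy loam in the greenhouse, treated at the one-leaf stage 2–3 weeks after sowing. Damage scored visually after about 3 weeks vs untreated controls (0% = control, 100% = dead).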

[23] = test system: Setaria viridis; test: Post-emergence herbicidal action, SETVI
Method in brief: as §2

[24] = test system: LOLMU; test: Pre-emergence herbicidal action, LOLMU; conditions: Table L
[25] = 80 g/ha, comparison with WO 2011035874, Table G
[26] = comparison with WO 2011035874, Table E
[27] = 80 g/ha, comparison with WO 2011035874, Table E
[28] = 80 g/ha, comparison with WO 2011035874, Table H
[29] = 320 g/ha, comparison with WO 2011035874, Table G
[30] = 80 g/ha, comparison with WO2011035874, Table F
[31] = 320 g/ha, comparison with WO 2011035874, Table H
[32] = comparison with WO2011035874, Table F
[33] = dosage 320 g/ha, scored visually after 3 weeks vs untreated controls

## Cn1nnnc1NC(=O)c1ccc(C(F)F)c(S(=O)(=O)CC2CC2)c1I [Example 1-81]
[1]; [25]
  Herbicidal efficacy against ALOMY: 0%
[2]; [26]
  Herbicidal efficacy against AMARE: 60%
[3]; [27]
  Herbicidal efficacy against MATIN: 10%
[4]; [25]
  Herbicidal efficacy against SETVI: 10%
[5]; 80 g/ha
  Herbicidal efficacy against VERPE: 70%
[6]; [28]
  Herbicidal efficacy against POLCO: 10%
[7]; 80 g/ha
  Herbicidal efficacy against AMARE: 60%
[8]; [25]
  Herbicidal efficacy against CYPES: 0%
[9]; [26]
  Herbicidal efficacy against STEME: 0%
[10]; 80 g/ha
  Herbicidal efficacy against ABUTH: 20%
[11]; [25]
  Herbicidal efficacy against AVEFA: 40%
[12]; [26]
  Herbicidal efficacy against ABUTH: 30%
[13]; [27]
  Herbicidal efficacy against VERPE: 30%
[14]; [26]
  Herbicidal efficacy against PHBPU: 10%
[15]; 80 g/ha
  Herbicidal efficacy against ECHCG: 10%
[16]; [27]
  Herbicidal efficacy against VIOTR: 0%
[17]; [28]
  Herbicidal efficacy against VIOTR: 90%
[18]; 80 g/ha
  Herbicidal efficacy against STEME: 50%

## CC[S+]([O-])c1c(C(F)F)ccc(C(=O)Nc2nnnn2C)c1I (centres unmarked) [Example 1-77]
[1]; [29]
  Herbicidal efficacy against ALOMY: 10%
[3]; [30]
  Herbicidal efficacy against MATIN: 0%
[4]; [29]
  Herbicidal efficacy against SETVI: 20%
[5]; 320 g/ha
  Herbicidal efficacy against VERPE: 90%
[6]; [31]
  Herbicidal efficacy against POLCO: 30%
[7]; 320 g/ha
  Herbicidal efficacy against AMARE: 100%
[8]; [29]
  Herbicidal efficacy against CYPES: 30%
[9]; [32]
  Herbicidal efficacy against STEME: 80%
[10]; 320 g/ha
  Herbicidal efficacy against ABUTH: 100%
[11]; [29]
  Herbicidal efficacy against AVEFA: 0%
[14]; [32]
  Herbicidal efficacy against PHBPU: 40%
[15]; 320 g/ha
  Herbicidal efficacy against ECHCG: 70%
[16]; [30]
  Herbicidal efficacy against VIOTR: 60%
[17]; [31]
  Herbicidal efficacy against VIOTR: 60%
[18]; 320 g/ha
  Herbicidal efficacy against STEME: 80%

## CSc1c(C(F)F)ccc(C(=O)Nc2nnc(C)o2)c1C [Example 7-1]
[19]
  herbicidal activity MATIN: 80%
[20]; 80 g/ha, Table C
  herbicidal activity ALOMY: 90%
[20]; dosage 20 g/ha, Table M
  Herbicidal efficacy against ALOMY: 70
[21]
  Herbicidal efficacy against AVEFA: 40
[1]; dosage 80 g/ha, Table L
  Herbicidal efficacy against ALOMY: 60
[1]; dosage 320 g/ha, Table L
  Herbicidal efficacy against ALOMY: 70
[2]; Table D
  herbicidal activity AMARE: 100%
[3]; dosage 20 g/ha, Table M
  Herbicidal efficacy against MATIN: 40
[4]; dosage 80 g/ha, Table L
  Herbicidal efficacy against SETVI: 70
[4]; dosage 320 g/ha, Table L
  Herbicidal efficacy against SETVI: 100
[6]; dosage 80 g/ha, Table L
  Herbicidal efficacy against POLCO: 30
[6]; dosage 320 g/ha, Table L
  Herbicidal efficacy against POLCO: 40
[7]; [33]
  herbicidal activity AMARE: 100%
[22]
  Herbicidal activity ECHCG: 100%
[8]; dosage 80 g/ha, Table L
  Herbicidal efficacy against CYPES: 60
[8]; dosage 320 g/ha, Table L
  Herbicidal efficacy against CYPES: 70
[9]; Table D
  Herbicidal activity STEME: 90%
[23]; 80 g/ha, Table C
  herbicidal activity SETVI: 100%
[23]; dosage 20 g/ha, Table M
  Herbicidal efficacy against SETVI: 100
[11]; dosage 80 g/ha, Table L
  Herbicidal efficacy against AVEFA: 20
[11]; dosage 320 g/ha, Table L
  Herbicidal efficacy against AVEFA: 70
[12]; Table D
  herbicidal activity ABUTH: 100%
[13]; dosage 20 g/ha, Table M
  Herbicidal efficacy against VERPE: 90
[24]; dosage 80 g/ha
  Herbicidal efficacy against LOLMU: 0
[24]; dosage 320 g/ha
  Herbicidal efficacy against LOLMU: 30
[14]; Table D
  Herbicidal activity PHBPU: 90%
[16]; 80 g/ha, Table D
  herbicidal activity VIOTR: 100%
[16]; dosage 20 g/ha, Table M
  Herbicidal efficacy against VIOTR: 100
[17]; dosage 80 g/ha, Table L
  Herbicidal efficacy against VIOTR: 90
[17]; dosage 320 g/ha, Table L
  Herbicidal efficacy against VIOTR: 100
[17]; [33]
  herbicidal activity VIOTR: 100%
[18]; [33]
  Herbicidal activity STEME: 80%
